Laboratory results reported in ChEMBL document CHEMBL4507287, “Data for DCP probe MRL-650” (2021).

Legend:
[1] = test system: Tyrosine-protein kinase ABL1 (Homo sapiens), P00519 [F317I]; details: Compound concentration 1000.0 nM
[2] = test system: Tyrosine-protein kinase ABL1 (Homo sapiens), P00519 [F317L]; details: Compound concentration 1000.0 nM
[3] = test system: Tyrosine-protein kinase ABL1 (Homo sapiens), P00519 [F317L]; details: Compound concentration 1000.0 nM; remark: listed apart in the source
[4] = test system: Tyrosine-protein kinase ABL1 (Homo sapiens), P00519 [M351T]; details: Compound concentration 1000.0 nM
[5] = test system: Tyrosine-protein kinase ABL1 (Homo sapiens), P00519 [Q252H]; details: Compound concentration 1000.0 nM
[6] = target: ALK tyrosine kinase receptor (Homo sapiens) (UniProt Q9UM73); details: Compound concentration 1000.0 nM
[7] = target: Aurora kinase B (Homo sapiens) (UniProt Q96GD4); details: Compound concentration 1000.0 nM
[8] = target: Aurora kinase C (Homo sapiens) (UniProt Q9UQB9); details: Compound concentration 1000.0 nM
[9] = target: Tyrosine-protein kinase receptor UFO (Homo sapiens) (UniProt P30530); details: Compound concentration 1000.0 nM
[10] = target: Bone morphogenetic protein receptor type-1A (Homo sapiens) (UniProt P36894); details: Compound concentration 1000.0 nM
[11] = target: Calcium/calmodulin-dependent protein kinase type 1D (Homo sapiens) (UniProt Q8IU85); details: Compound concentration 1000.0 nM
Chain of Calcium/calmodulin-dependent protein kinase type 1D (Homo sapiens) (Q8IU85 whole entry, looked up): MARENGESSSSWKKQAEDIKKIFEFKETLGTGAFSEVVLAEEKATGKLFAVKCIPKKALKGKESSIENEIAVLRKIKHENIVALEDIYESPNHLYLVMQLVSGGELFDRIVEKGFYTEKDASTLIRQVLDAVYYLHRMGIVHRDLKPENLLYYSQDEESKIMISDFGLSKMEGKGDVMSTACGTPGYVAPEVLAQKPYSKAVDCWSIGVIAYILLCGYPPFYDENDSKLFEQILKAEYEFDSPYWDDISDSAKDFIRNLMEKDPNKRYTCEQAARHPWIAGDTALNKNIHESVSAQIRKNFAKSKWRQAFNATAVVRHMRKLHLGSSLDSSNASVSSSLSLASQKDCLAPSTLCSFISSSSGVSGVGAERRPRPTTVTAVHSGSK

[12] = target: Peripheral plasma membrane protein CASK (Homo sapiens) (UniProt O14936); details: Compound concentration 1000.0 nM
[13] = target: Casein kinase I isoform gamma-3 (Homo sapiens) (UniProt Q9Y6M4); details: Compound concentration 1000.0 nM
Chain of Casein kinase I isoform gamma-3 (Homo sapiens) (Q9Y6M4 whole entry, looked up, canonical isoform): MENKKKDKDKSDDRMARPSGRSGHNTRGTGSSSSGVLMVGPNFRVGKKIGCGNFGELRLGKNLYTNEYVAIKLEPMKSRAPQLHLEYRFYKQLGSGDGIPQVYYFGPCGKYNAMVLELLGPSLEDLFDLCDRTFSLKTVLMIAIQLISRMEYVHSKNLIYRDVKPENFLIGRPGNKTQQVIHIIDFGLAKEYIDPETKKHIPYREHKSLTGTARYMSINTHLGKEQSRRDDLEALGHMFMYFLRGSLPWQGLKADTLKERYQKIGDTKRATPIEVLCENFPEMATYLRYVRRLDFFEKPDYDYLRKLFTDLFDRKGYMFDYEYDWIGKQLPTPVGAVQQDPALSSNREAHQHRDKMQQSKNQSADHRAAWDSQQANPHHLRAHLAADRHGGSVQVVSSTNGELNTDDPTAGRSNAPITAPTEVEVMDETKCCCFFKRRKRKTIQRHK

[14] = test system: Epidermal growth factor receptor (Homo sapiens), P00533 [UNDEFINED MUTATION]; details: Compound concentration 1000.0 nM
[15] = target: Mitogen-activated protein kinase 9 (Homo sapiens) (UniProt P45984); details: Compound concentration 1000.0 nM
[16] = target: Leukocyte tyrosine kinase receptor (Homo sapiens) (UniProt P29376); details: Compound concentration 1000.0 nM
Chain of Leukocyte tyrosine kinase receptor (Homo sapiens) (P29376 whole entry): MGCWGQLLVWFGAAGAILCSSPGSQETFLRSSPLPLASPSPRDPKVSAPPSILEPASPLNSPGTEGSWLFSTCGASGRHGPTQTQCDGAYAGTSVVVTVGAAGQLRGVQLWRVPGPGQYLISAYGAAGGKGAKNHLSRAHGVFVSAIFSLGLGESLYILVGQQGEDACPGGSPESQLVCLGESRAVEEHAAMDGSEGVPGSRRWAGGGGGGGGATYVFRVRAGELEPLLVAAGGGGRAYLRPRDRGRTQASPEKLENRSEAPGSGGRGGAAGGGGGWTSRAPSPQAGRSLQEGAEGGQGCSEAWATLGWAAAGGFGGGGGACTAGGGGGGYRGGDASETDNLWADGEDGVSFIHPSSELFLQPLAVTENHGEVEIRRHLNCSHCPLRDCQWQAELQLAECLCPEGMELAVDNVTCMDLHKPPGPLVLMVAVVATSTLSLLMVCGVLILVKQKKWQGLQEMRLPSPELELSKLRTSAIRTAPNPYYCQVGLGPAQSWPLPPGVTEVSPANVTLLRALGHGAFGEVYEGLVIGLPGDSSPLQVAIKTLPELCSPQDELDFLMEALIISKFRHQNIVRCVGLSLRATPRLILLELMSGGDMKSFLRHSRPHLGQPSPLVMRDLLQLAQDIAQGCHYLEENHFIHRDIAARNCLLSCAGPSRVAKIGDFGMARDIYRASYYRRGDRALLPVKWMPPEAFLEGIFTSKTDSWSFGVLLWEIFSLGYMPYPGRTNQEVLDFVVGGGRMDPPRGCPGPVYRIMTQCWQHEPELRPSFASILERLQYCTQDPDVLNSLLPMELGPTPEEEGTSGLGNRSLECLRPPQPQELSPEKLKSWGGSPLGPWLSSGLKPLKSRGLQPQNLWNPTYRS

[17] = target: Serine/threonine-protein kinase MARK1 (Homo sapiens) (UniProt Q9P0L2); details: Compound concentration 1000.0 nM
[18] = target: Serine/threonine-protein kinase MARK2 (Homo sapiens) (UniProt Q7KZI7); details: Compound concentration 1000.0 nM
[19] = target: Dual specificity mitogen-activated protein kinase kinase 3 (Homo sapiens) (UniProt P46734); details: Compound concentration 1000.0 nM
[20] = target: Muscle, skeletal receptor tyrosine-protein kinase (Homo sapiens) (UniProt O15146); details: Compound concentration 1000.0 nM
[21] = target: Serine/threonine-protein kinase Nek5 (Homo sapiens) (UniProt Q6P3R8); details: Compound concentration 1000.0 nM
[22] = target: Serine/threonine-protein kinase NLK (Homo sapiens) (UniProt Q9UBE8); details: Compound concentration 1000.0 nM
[23] = target: Serine/threonine-protein kinase PAK 1 (Homo sapiens) (UniProt Q13153); details: Compound concentration 1000.0 nM
[24] = target: Platelet-derived growth factor receptor beta (Homo sapiens) (UniProt P09619); details: Compound concentration 1000.0 nM
[25] = target: Cyclin-dependent kinase 15 (Homo sapiens) (UniProt Q96Q40); details: Compound concentration 1000.0 nM
[26] = target: Cyclin-dependent kinase 14 (Homo sapiens) (UniProt O94921); details: Compound concentration 1000.0 nM
Chain of Cyclin-dependent kinase 14 (Homo sapiens) (O94921 whole entry, canonical isoform): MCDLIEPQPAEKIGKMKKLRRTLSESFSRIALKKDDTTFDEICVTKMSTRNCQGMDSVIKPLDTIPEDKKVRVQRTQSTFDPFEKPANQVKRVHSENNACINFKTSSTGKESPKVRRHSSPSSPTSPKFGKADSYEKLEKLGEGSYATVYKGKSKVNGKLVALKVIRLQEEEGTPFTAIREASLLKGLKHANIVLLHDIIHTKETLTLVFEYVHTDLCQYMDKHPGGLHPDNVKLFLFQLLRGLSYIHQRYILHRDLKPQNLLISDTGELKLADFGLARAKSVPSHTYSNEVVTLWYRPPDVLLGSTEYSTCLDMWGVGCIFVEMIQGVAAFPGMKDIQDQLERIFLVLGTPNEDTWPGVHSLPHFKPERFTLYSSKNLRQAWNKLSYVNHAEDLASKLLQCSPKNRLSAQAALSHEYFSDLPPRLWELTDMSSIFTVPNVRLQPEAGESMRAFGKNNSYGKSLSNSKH

[27] = target: Phosphorylase b kinase gamma catalytic chain, skeletal muscle/heart isoform (Homo sapiens) (UniProt Q16816); details: Compound concentration 1000.0 nM
[28] = test system: Phosphatidylinositol 4,5-bisphosphate 3-kinase catalytic subunit alpha isoform (Homo sapiens), P42336 [E545K]; details: Compound concentration 1000.0 nM
Chain of Phosphatidylinositol 4,5-bisphosphate 3-kinase catalytic subunit alpha isoform (Homo sapiens), P42336 [E545K] (P42336 whole entry E545K, canonical isoform): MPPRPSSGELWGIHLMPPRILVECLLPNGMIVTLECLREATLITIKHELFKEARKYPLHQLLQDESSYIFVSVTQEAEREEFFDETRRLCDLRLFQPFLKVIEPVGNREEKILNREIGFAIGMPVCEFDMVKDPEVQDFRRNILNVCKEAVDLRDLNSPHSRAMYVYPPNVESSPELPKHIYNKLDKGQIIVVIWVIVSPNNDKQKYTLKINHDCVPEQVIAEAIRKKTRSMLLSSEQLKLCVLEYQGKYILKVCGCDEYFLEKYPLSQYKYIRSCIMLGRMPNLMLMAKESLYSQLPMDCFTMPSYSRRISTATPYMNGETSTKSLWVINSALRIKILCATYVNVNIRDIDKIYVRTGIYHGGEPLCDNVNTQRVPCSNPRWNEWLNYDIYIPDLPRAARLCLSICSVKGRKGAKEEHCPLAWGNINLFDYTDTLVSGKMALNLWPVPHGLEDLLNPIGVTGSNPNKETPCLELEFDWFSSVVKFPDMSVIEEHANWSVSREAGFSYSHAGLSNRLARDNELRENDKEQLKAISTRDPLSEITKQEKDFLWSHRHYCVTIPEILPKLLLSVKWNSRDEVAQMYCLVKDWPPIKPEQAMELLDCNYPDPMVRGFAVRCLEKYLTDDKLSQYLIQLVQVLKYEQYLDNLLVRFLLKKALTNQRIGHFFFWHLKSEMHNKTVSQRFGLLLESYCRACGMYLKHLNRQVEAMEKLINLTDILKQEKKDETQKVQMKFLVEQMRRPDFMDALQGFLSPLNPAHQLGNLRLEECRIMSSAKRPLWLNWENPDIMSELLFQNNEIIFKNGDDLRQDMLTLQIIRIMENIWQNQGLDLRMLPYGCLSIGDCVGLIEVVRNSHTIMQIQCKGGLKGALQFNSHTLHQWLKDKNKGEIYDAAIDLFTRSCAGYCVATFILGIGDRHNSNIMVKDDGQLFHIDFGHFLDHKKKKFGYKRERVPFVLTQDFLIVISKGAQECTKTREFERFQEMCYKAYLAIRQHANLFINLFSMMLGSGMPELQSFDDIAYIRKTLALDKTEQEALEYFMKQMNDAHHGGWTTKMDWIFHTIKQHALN

[29] = target: Phosphatidylinositol 4,5-bisphosphate 3-kinase catalytic subunit beta isoform (Homo sapiens) (UniProt P42338); details: Compound concentration 1000.0 nM
Chain of Phosphatidylinositol 4,5-bisphosphate 3-kinase catalytic subunit beta isoform (Homo sapiens) (P42338 whole entry, looked up, canonical isoform): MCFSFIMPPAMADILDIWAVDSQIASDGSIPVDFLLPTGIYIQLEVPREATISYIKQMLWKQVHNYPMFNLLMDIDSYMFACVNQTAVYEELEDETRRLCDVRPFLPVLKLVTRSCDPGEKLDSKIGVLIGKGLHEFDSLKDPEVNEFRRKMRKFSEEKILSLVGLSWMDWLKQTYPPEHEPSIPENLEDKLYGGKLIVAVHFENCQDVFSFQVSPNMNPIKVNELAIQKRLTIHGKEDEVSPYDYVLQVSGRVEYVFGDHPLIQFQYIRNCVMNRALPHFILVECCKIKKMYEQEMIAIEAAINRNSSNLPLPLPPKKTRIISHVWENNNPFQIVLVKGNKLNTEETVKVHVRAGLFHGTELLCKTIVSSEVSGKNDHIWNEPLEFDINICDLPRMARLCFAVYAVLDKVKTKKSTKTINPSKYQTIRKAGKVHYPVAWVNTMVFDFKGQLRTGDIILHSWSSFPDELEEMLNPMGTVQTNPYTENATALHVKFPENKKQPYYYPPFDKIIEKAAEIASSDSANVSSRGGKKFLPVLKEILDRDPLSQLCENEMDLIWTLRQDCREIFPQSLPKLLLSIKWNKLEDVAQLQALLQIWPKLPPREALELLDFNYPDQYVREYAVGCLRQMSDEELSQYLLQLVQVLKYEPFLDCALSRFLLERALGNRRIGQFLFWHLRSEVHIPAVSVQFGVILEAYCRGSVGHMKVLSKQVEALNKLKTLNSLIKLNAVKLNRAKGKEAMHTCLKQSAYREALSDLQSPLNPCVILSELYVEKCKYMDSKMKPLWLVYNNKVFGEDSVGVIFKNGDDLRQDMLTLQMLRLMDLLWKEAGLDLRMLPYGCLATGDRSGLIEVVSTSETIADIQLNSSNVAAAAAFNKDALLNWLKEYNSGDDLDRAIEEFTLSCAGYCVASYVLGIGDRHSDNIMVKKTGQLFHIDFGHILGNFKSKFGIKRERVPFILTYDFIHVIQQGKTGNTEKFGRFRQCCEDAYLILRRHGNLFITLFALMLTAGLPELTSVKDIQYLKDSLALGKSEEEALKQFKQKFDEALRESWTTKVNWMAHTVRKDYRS

[30] = target: Serine/threonine-protein kinase pim-2 (Homo sapiens) (UniProt Q9P1W9); details: Compound concentration 1000.0 nM
[31] = target: Serine/threonine-protein kinase pim-3 (Homo sapiens) (UniProt Q86V86); details: Compound concentration 1000.0 nM
[32] = target: Phosphatidylinositol 5-phosphate 4-kinase type-2 gamma (Homo sapiens) (UniProt Q8TBX8); details: Compound concentration 1000.0 nM
[33] = target: Serine/threonine-protein kinase D1 (Homo sapiens) (UniProt Q15139); details: Compound concentration 1000.0 nM
[34] = target: RAF proto-oncogene serine/threonine-protein kinase (Homo sapiens) (UniProt P04049); details: Compound concentration 1000.0 nM
[35] = test system: Proto-oncogene tyrosine-protein kinase receptor Ret (Homo sapiens), P07949 [V804L]; details: Compound concentration 1000.0 nM
[36] = target: Serine/threonine-protein kinase SIK2 (Homo sapiens) (UniProt Q9H0K1); details: Compound concentration 1000.0 nM
[37] = target: Tyrosine-protein kinase Srms (Homo sapiens) (UniProt Q9H3Y6); details: Compound concentration 1000.0 nM
[38] = target: SRSF protein kinase 1 (Homo sapiens) (UniProt Q96SB4); details: Compound concentration 1000.0 nM
Chain of SRSF protein kinase 1 (Homo sapiens) (Q96SB4 whole entry): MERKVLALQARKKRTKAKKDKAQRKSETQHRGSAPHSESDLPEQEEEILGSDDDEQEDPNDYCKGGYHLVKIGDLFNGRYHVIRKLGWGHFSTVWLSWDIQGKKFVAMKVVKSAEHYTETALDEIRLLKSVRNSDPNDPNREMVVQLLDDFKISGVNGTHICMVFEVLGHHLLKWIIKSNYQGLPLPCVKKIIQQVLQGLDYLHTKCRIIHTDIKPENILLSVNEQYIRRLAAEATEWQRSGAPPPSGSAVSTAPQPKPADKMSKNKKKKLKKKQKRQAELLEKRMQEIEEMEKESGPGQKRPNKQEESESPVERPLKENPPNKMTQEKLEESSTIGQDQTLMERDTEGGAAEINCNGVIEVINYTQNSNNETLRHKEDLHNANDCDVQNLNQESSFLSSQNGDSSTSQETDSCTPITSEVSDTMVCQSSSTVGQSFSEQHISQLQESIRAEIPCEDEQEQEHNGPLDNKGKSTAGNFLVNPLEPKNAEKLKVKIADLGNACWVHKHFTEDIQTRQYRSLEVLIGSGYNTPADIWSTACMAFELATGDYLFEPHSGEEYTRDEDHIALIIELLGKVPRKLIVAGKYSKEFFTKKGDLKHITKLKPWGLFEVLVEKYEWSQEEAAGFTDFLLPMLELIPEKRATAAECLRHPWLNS

[39] = target: Angiopoietin-1 receptor (Homo sapiens) (UniProt Q02763); details: Compound concentration 1000.0 nM
[40] = target: Serine/threonine-protein kinase TNNI3K (Homo sapiens) (UniProt Q59H18); details: Compound concentration 1000.0 nM
[41] = target: Tyrosine-protein kinase receptor TYRO3 (Homo sapiens) (UniProt Q06418); details: Compound concentration 1000.0 nM
[42] = target: Vascular endothelial growth factor receptor 2 (Homo sapiens) (UniProt P35968); details: Compound concentration 1000.0 nM
[43] = target: D(3) dopamine receptor (Homo sapiens) (UniProt P35462); details: Compound concentration 10.0 uM
[44] = target: Kappa-type opioid receptor (Homo sapiens) (UniProt P41145); details: Compound concentration 10.0 uM
[45] = target: Sigma intracellular receptor 2 (Homo sapiens, UniProt Q5BJF2); details: Compound concentration 10.0 uM

With `CC(=O)c1c(NS(C)(=O)=O)c2cc(-c3ccc(Cl)cc3)c(-c3ccc(Cl)cc3Cl)nc2n(C)c1=O` [MRL-CB1-NC] the residual activity [1] was 85%, the residual activity [2] was 75% and the residual activity [3] was 89%. For the same compound, the residual activity [4] was 87%, the residual activity [5] was 76% and the residual activity [6] was 95%. The residual activity [7] was 100%, the residual activity [8] was 100% and the residual activity [9] was 100%. For the same compound, the residual activity [10] was 95%, the residual activity [11] was 100% and the residual activity [12] was 92%. It also gave a residual activity [13] of 100%, a residual activity [14] of 100% and a residual activity [15] of 67%. The residual activity [16] was 100%, the residual activity [17] was 100% and the residual activity [18] was 100%. The residual activity [19] was 96%, the residual activity [20] was 99% and the residual activity [21] was 100%. The residual activity [22] was 72%, the residual activity [23] was 96% and the residual activity [24] was 95%. It also gave a residual activity [25] of 100%, a residual activity [26] of 100% and a residual activity [27] of 94%. The residual activity [28] was 91%, the residual activity [29] was 100% and the residual activity [30] was 100%. For the same compound, the residual activity [31] was 100%, the residual activity [32] was 100% and the residual activity [33] was 100%. The residual activity [34] was 100%, the residual activity [35] was 100% and the residual activity [36] was 100%. For the same compound, the residual activity [37] was 71%, the residual activity [38] was 100% and the residual activity [39] was 90%. It also gave a residual activity [40] of 100%, a residual activity [41] of 64% and a residual activity [42] of 82%. For the same compound, the inhibition [43] was 5.91%, the inhibition [44] was 2.99% and the inhibition [45] was 17.6%.
Work on `CC(=O)Nc1c(C(C)=O)c(=O)n(C)c2nc(-c3ccc(Cl)cc3Cl)c(-c3ccc(Cl)cc3)cc12` [NAPHTHYRIDINONE] yielded a residual activity [1] of 94%, a residual activity [2] of 100% and a residual activity [3] of 100%. For the same compound, the residual activity [4] was 100%, the residual activity [5] was 72% and the residual activity [6] was 100%. It also gave a residual activity [7] of 92%, a residual activity [8] of 100% and a residual activity [9] of 100%. It also gave a residual activity [10] of 85%, a residual activity [11] of 100% and a residual activity [12] of 83%. It also gave a residual activity [13] of 100%, a residual activity [14] of 92% and a residual activity [15] of 100%. For the same compound, the residual activity [16] was 100%, the residual activity [17] was 100% and the residual activity [18] was 100%. It also gave a residual activity [19] of 86%, a residual activity [20] of 100% and a residual activity [21] of 100%. The residual activity [22] was 100%, the residual activity [23] was 100% and the residual activity [24] was 100%. The residual activity [25] was 100%, the residual activity [26] was 100% and the residual activity [27] was 100%. The residual activity [28] was 79%, the residual activity [29] was 100% and the residual activity [30] was 100%. The residual activity [31] was 100%, the residual activity [32] was 100% and the residual activity [33] was 100%. It also gave a residual activity [34] of 100%, a residual activity [35] of 100% and a residual activity [36] of 100%. It also gave a residual activity [37] of 78%, a residual activity [38] of 100% and a residual activity [39] of 91%. For the same compound, the residual activity [40] was 100%, the residual activity [41] was 68% and the residual activity [42] was 94%. It also gave an inhibition [43] of 14.3%, an inhibition [44] of 7.96% and an inhibition [45] of 54.6%.
